We go through 3 compounds from patent US4745109A, “Suicide inhibitors of aromatase” (Washington Research Foundation, priority 1984, dated 1988).

Entries after “also recorded” stand apart in the source; their conditions may differ. Like-named read-outs stand apart in the source and are kept apart here.

The conditions of data set [1]: in vivo; cited from earlier work.
Data set [2] deals with T1, aromatase (Homo sapiens, UniProt P11511).
T1 construct: Placental microsomes were prepared as previously described; from tissue; host or cells: human placenta, microsomes
T1 sequence (P11511 1-503): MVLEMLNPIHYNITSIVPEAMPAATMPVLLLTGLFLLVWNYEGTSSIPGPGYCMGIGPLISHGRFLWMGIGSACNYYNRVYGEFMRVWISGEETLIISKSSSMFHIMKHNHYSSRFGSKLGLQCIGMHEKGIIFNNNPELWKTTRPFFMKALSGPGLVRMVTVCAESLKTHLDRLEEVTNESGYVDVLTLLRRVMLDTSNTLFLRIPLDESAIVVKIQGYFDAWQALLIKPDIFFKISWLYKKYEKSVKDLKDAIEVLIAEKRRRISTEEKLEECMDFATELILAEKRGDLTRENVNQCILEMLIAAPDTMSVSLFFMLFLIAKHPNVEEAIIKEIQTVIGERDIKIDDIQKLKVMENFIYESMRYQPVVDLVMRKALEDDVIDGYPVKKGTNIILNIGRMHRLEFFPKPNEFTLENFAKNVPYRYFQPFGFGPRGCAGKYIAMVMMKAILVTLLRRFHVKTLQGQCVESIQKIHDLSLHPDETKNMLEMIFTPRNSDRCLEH
Put plainly: NADPH and Oxygen Dependency Experiments: aromatase inactivation in placental microsomes, tritium release assay. Format: biochemical. The note with it: 500 nM inhibitor, preincubation 3 minutes at 30° C., not corrected for background loss (approximately 5%). On the procedure: (§1) The activity of 17β-hydroxy-10β-mercaptoestr-4-en-3-one and 19-mercaptoandrost-4-en-3,17-dione were tested as suicide inhibitors of aromatase according to the method of Coury et al. (J. Biol. Chem., 256, 1076 (1981)) in human placental microsomes. The activity was measured by the well-established tritium release assay according to Thompson et al. (J. Biol. Chem., 249, 5364 (1974)) using 1β,2β-[^3 H]androstenedione (40-60 Ci/mole) obtained from New England Nuclear in Boston, MA.
(§2) Human placenta were obtained from the University Hospital, University of Washington, Seattle, WA, and were used within a few hours of delivery. Placental microsomes were prepared as previously described. (Coury et al). Protein concentration was determined by the method of Lowry (J. Biol. Chem., 193, 265 (1951)).
(§3) All incubations were carried out in 10 mM phosphate buffer, pH 7.5, 100 mM KCl, 1/mM EDTA. Incubations contained 1.0 mg/ml microsomal protein, 32 mg/ml propylene glycol, 0.36 mM NADPH, 11.5 mM glucose-6-phosphate dehydrogenase and 10 mM MgCl2 and were allowed to warm to 30° C. for 5 minutes. Inhibitors were added as 10 μl/ml from 10 μM stock solutions in ethanol to give final inhibitor concentrations of 100 nM. At various times, from 0 to 70 minutes, 400 μl aliquots in duplicate were removed and were added to […] of a 10 mM phosphate buffer, pH 7.5, 100 mM KCl, 1 mM EDTA containing 40 μM 1β,2β,[^3 H]androstenedione (20 Ci/mol). Tritium release incubations were conducted at 37° C. for 10 minutes and stopped by addition of 5 ml 20% acetone/chloroform. Following vortexing at high speeds for 30 seconds and centrifugation, 100 μl of the water layer was removed and mixed with 5 ml LSC cocktail and counted. Percent activity remaining is the number of DPMs after a time period divided by the number of DPMs at time zero multiplied by 100.
Incubations containing 1.0 mg/ml microsomal protein, 32 mg/ml propylene glycol, with or without 0.36 mM NADPH, were warmed to 30° C. for 5 minutes. Inhibitors were added in ethanol (10 μl/ml of incubate) to give inhibitor concentrations of 500 nM. Controls contained only ethanol and NADPH. After incubating 0 and 3 minutes at 30° C., 400 μl aliquots, in duplicate, from the NADPH containing incubations were added to the tritium release assay. For incubations lacking NADPH, 400 μl aliquots were removed and added to 100 μl phosphate buffer containing 1.4 mM NADPH and […] 1β,2β[^3 H]androstenedione (20 Ci/mol). Tritium release assays were conducted as described above.
Incubations containing 1.0 mg/ml microsomal protein, 32 mg/ml propylene glycol, and 500 nM inhibitor or ethanol (10 μl/ml) were prepared. Incubations run under anaerobic conditions were alternately evacuated and purged with deoxygenated nitrogen ten times at 0° C. Both anaerobic and aerobic incubations were allowed to warm to 30° C. for 5 minutes, and 10 μl/ml of a 1.4 mM NADPH solution was added via a syringe. After incubating 0 and 3 minutes at 30° C., triplicate aliquots of 400 μl were removed and added to tritium release assays.

In data set [3] the target is T1, aromatase. Kind of data set: Androstenedione and Cysteine Protection Experiments (t1/2 of aromatase inactivation), tritium release assay. Type of data set: biochemical. The note with it: 1 at 500 nM, 2 at 167 nM, 30° C., NADPH, not corrected for background loss; for t1/2 (mean ± SD), time to bring about a 50% inhibition of aromatase: inhibitor alone; for t1/2 (mean ± SD), inhibitor and androstenedione: with androstenedione 5.0 μM; for t1/2 (mean ± SD), inhibitor and cysteine: with cysteine 1.0 mM. How it is done:
as §1, §2, §3
Incubations containing 1.0 mg/ml microsomal protein, 32 mg/ml propylene glycol, and 0.36 mM NADPH were warmed to 30° C. for 5 minutes. Addition of ethanol solutions (10 μl/ml) of inhibitors with and without androstenedione gave final concentrations of 500 nM 17β-hydroxy-10β-mercaptoestr-4-en-3-one, 167 nM 19-mercaptoandrost-4-en-3,17-dione, with and without 5.0 μM androstenedione. After 0, 1, 2, and 3 minutes at 30° C., 400 μl aliquots, in duplicate, were removed and added to the tritium release assay.
Incubations containing 1.0 mg/ml microsomal protein, 32 mg/ml propylene glycol, and 0.36 mM NADPH, with or without 1.0 mM cysteine, were warmed to 30° C. for 5 minutes. Addition of inhibitor solution (10 μl/ml) gave final concentrations of 500 nM 17β-hydroxy-10β-mercapto-4-en-3-one and 167 nM 19-mercaptoandrost-4-en-3,17-dione. After incubating 0, 1, 2, and 3 minutes, 400 μl aliquots, in duplicate, were removed and added to tritium release assays.

Data set [4] concerns the target T1, aromatase. Put plainly: Irreversibility Experiments (diffusion dialysis), tritium release assay. Type of data set: biochemical. The note with it: 250 nM inhibitor, preincubation 5 minutes at 30° C. How it is done: as §1, §2
Incubations containing 1.8 mg/ml microsomal protein, 32 mg/ml propylene glycol, 0.7 mM NADPH, and 250 nM of inhibitor were kept at 4° C. For zero time points, 400 μl aliquots, in triplicate, were removed and added to tritium release assays. Remaining microsomes were incubated at 30° C. for 5 minutes, cooled in ice to 4° C.; and 400 μl aliquots, in triplicate, were added to tritium release assays to determine remaining activity. Remaining microsomes were added to dialysis tubing (Spectrapore® membrane tubing, 3500 dalton cut off) and dialyzed against a 10 mM phosphate buffer, pH 7.5, 100 mM KCl, 1 mM EDTA, and 5% propylene glycol at 0° C. for 20 hours. To serve as controls, incubations containing the same concentrations of inhibitor, but no cofactors, were carried through the same procedures.
After dialysis, 400 μl aliquots, in duplicate, were added to 100 μl phosphate buffer containing 2.9 mM NADPH and 40 μM 1β,2β[^3 H]androstenedione (20 Ci/mol) and incubated at 37° C. for 10 minutes. The usual workup for the tritium release assay was followed. Protein content for all incubations fell approximately 25% after dialysis. Enzyme activity fell approximately 60% after dialysis.

The target of data set [5] is T1, aromatase. Put plainly: Concentration-Dependent Inactivation (rate constant of inactivation). The conditions noted are these: relative to 19-mercaptoandrost-4-en-3,17-dione. Type of data set: biochemical. On the procedure: as §1, §2
Incubations containing 1.0 mg/ml microsomal protein, 32 mg/ml propylene glycol, and 0.36 mM NADPH were warmed to 30° C. for 5 minutes. Various concentrations of inhibitor were added to the incubations in ethanol (10 μl/ml of incubate). Ethanol (10 μl/ml was) added as a control. After incubating 0, 1, 2, and 3 minutes at 30° C., 400 μl aliquots, in duplicate, were removed and were added to the tritium release assay described above.

[6] abbreviates: N2 atmosphere (anaerobic), read-out: % Activity Remaining (mean ± SD), + N2 atmosphere.
[7] abbreviates: with NADPH, aerobic, read-out: % Activity Remaining (mean ± SD).
Where [8] appears, read: without NADPH, read-out: % Activity Remaining (mean ± SD), - NADPH.
[9] abbreviates: after dialysis 20 hours at 0° C., read-out: Activity Remaining (mean ± SD), After Dialysis.
The mark [10] stands for this setting: 5 min, before dialysis, read-out: Activity Remaining (mean ± SD), Before Dialysis.

For `CCC1(c2ccc(N)cc2)CCC(=O)NC1=O` (stereo not drawn) [aminoglutethimide], the side effects entry in data set [1] is “lethargy or tumor lysis syndrome; also recorded: sedative which has the side effect of lethargy”.
For `C[C@]12CC[C@H]3[C@@H](CCC4=CC(=O)CC[C@@]43CS)[C@@H]1CCC2=O` [compound 2, 19-mercaptoandrost-4-en-3,17-dione], the remaining activity at 0.5 µM on aromatase [2] (setting [6]) was 95 ± 5%; on aromatase [2] (setting [7]) it was 77 ± 4%; at aromatase [2] (setting [8]) it was 95 ± 5%. Also, at aromatase [3], the “t1/2 (mean ± SD), time to bring about a 50% inhibition of aromatase” value came out at 7.7 ± 1.25 min. Further, the “t1/2 (mean ± SD), inhibitor and androstenedione” value at aromatase [3] was 12.2 ± 0.35 min. Moreover, the “t1/2 (mean ± SD), inhibitor and cysteine” value at aromatase [3] turned out to be 6.87 ± 0.333 min. The remaining activity at 0.25 µM was 58 ± 2% on aromatase [4] (setting [9]) and 50 ± 5% at aromatase [4] (setting [10]).
On to `C[C@]12CC[C@H]3[C@@H](CCC4=CC(=O)CC[C@@]43S)[C@@H]1CC[C@@H]2O` [compound 1, 17β-hydroxy-10β-mercaptoestr-4-en-3-one], for which the remaining activity at 0.5 µM came out at 95 ± 2% on aromatase [2] (setting [6]), 67 ± 2% on aromatase [2] (setting [7]) and 96 ± 3% at aromatase [2] (setting [8]). The “t1/2 (mean ± SD), time to bring about a 50% inhibition of aromatase” value on aromatase [3] came out at 4.68 ± 0.833 min. Further, the “t1/2 (mean ± SD), inhibitor and androstenedione” value at aromatase [3] came to 12.6 ± 0.833 min. Also, the “t1/2 (mean ± SD), inhibitor and cysteine” value on aromatase [3] is 5.17 ± 0.967 min. The “rate constant ratio, 17β-hydroxy-10β-mercaptoestr-4-en-3-one vs 19-mercaptoandrost-4-en-3,17-dione” value at aromatase [5] is recorded as “about three”. The remaining activity at 0.25 µM stood at 52 ± 3% on aromatase [4] (setting [9]) and 49 ± 6% at aromatase [4] (setting [10]).
